Measured values taken from patent US12606561B2, “Substituted pyrazolo[1,5-a][1,3,5]triazines as CDK inhibitors” (QURIENT CO., LTD., priority 2018, dated 2026).

Molecular target: 28 CDKs family protein kinases (Homo sapiens, UniProt Q00535)
Test: In vitro IC50 profile for CDKs family kinase (33PanQinase Activity Assay, ProQinase)
Type: biochemical
Set-up: fused on or other part: GST or His tag
Conditions: CDK5/p25NCK; read-out: CDK7 selectivity profile in CDKs family, IC50
Description: The IC50 profile of compound 11 was determined using 28 CDKs family protein kinases through ProQinase GmbH (Freiburg, Germany). All the protocol and materials had been provided by ProQinase GmbH. Briefly, in the process, 90 μl H2O were added to each well of a compound dilution plate. To minimize potential precipitation, the H2O was added to the plate only a few minutes before the transfer of the compound solutions into the assay plates. The plate was shaken thoroughly, resulting in a “compound dilution plate/10% DMSO”. The compound dilution plate(s) were discarded at the end of the working day. For the assays (see below), 5 μl solution from each well of the compound dilution plate were transferred into the assay plates. The final volume of the assay was 50 μl. […] Kinases from external vendors, Carna Biosciences Inc.; Invitrogen Corp.; and Millipore Corp., were expressed, purified and quality-controlled by virtue of the vendors readings. […] Incorporation of ^33Pi was determined with a microplate scintillation counter (Microbeta, Wallac). […] The residual activity (in %) for each well of a particular plate was calculated by using the following formula: Res. Activity (%)=100×[(cpm of compound−low control)/(high control−low control)].

28 CDKs family protein kinases, sequence (Q00535 whole entry): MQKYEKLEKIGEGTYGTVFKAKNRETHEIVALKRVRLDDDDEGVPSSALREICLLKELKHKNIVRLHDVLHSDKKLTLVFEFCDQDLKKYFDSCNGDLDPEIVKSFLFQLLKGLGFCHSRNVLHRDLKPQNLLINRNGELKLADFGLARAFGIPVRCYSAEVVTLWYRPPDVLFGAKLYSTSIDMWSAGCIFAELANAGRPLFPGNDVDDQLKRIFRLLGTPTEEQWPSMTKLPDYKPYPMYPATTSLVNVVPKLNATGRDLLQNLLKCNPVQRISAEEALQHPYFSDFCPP

## CC(C)c1cnn2c(NCc3ccccc3-c3nccc4cc(NC(=O)/C=C/CN(C)C)ccc34)nc(N3CCC(N)CC3)nc12 [Compound 11]
  IC50: > 10 µM
